Results as given in BindingDB's records for doi:10.1016/j.bmc.2007.07.054 (Yeungnam University, 2007).

Experiments:
[1] = target: T1, Group 10 secretory phospholipase A2 (Homo sapiens, UniProt O15496); test: Inhibition of human cloned sPLA2-10 expressed in HEK293 cells
T1 sequence (O15496 whole entry): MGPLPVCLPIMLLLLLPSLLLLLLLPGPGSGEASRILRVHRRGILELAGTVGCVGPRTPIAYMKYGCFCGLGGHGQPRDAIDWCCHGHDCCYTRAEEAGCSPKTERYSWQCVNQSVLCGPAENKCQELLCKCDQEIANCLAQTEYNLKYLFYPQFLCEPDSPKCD

[2] = target: Phospholipase A2 (Rattus norvegicus, UniProt P04055); test: Inhibition of rat cloned sPLA2-1B expressed in HEK293 cells
Phospholipase A2, sequence (P04055 whole entry): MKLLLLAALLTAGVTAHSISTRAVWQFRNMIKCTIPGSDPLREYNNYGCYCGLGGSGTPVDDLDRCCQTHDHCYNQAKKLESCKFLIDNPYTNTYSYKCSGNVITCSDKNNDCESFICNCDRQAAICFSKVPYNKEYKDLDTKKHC

[3] = target: T2, Cytosolic phospholipase A2 (Homo sapiens, UniProt P47712); test: Inhibition of human cloned cPLA2 expressed in HEK293 cells
T2 sequence (P47712 whole entry): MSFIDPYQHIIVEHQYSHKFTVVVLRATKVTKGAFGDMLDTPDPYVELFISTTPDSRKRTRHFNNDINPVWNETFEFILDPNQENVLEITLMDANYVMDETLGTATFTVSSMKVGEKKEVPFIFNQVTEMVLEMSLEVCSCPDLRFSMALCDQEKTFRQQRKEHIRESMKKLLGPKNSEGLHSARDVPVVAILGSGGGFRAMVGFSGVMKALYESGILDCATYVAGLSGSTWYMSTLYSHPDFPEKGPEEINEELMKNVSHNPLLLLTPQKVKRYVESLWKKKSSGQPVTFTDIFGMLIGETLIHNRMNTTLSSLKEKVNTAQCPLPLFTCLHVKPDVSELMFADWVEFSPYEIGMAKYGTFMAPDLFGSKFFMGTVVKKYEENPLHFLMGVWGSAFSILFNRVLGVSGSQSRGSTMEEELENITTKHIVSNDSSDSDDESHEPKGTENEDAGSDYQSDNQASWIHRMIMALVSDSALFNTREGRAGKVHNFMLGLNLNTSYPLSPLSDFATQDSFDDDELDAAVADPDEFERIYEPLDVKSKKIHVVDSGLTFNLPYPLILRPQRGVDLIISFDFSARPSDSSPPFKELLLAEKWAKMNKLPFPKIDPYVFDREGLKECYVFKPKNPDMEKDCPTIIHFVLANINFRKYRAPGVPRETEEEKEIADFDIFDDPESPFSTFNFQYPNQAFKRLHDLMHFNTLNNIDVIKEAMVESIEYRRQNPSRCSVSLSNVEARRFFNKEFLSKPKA

Measured: IC50

O=c1cc(O)cc2oc(-c3ccc(O)c(-c4c(O)cc(O)c5c(=O)cc(-c6ccc(O)cc6)oc45)c3)cc(O)c1-2
> 100 µM: all assays above

O=c1cc(O)cc2oc(-c3ccc(Oc4cc(-c5cc(O)c6c(=O)cc(O)cc-6o5)ccc4O)cc3)cc(O)c1-2
> 100 µM: all assays above
